For this test, the target named is T1, hCRTH2 (Homo sapiens, UniProt Q9Y5Y4).
T1 sequence (Q9Y5Y4 1-395): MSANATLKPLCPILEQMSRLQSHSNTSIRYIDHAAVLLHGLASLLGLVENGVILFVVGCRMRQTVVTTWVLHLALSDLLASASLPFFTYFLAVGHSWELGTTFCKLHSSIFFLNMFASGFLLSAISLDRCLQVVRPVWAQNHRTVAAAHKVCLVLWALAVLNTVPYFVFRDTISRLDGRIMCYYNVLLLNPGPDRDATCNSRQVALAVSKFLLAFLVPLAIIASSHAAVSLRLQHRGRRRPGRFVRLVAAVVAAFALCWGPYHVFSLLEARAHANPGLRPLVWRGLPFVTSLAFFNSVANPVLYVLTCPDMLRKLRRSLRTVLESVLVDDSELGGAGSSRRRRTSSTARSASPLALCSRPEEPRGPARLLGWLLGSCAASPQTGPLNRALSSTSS
Kind of test: Radioligand binding assay ([3H]PGD2 competition).
Protocol: Radioligand binding assay. […] Competing ligands were diluted in dimethylsulfoxide (Me2SO) that was kept constant at 1% (v/v) of the final incubation volume. The reaction was initiated by the addition of 8-20 μg of membrane protein prepared from a HEK-hCRTH2 cell line. Total and non-specific binding were determined in the absence and the presence of 10 μM PGD2, respectively. Under these conditions, specific binding (total minus non-specific) of the radioligand to the receptor reached equilibrium within 50 min and was stable up to 180 min. The reaction was routinely conducted for 60 min at room temperature and terminated by rapid filtration through prewetted Unifilters GF/C (Packard), using a Tomtec MachIII semi-automated harvester (for HEK-hCRTH2). The filters were then washed with 4 ml of the same buffer and residual radioligand bound to the filter was determined by liquid scintillation counting following equilibration in 25 μl Ultima Gold F™ (Unifilter) (Packard).
Take `CN(C(=O)CCc1ccccc1)[C@@H]1CCc2c(CC(=O)O)c3ccccc3n2C1` [Example 29, {(7R)-7-[methyl(3-phenylpropanoyl)amino]-6,7,8,9-tetrahydropyrido[1,2-a]indol-10-yl}acetic acid]: the Ki is 5 to 10 nM.

As for `COC(C(=O)N(C)[C@@H]1CCc2c(CC(=O)O)c3ccccc3n2C1)c1ccccc1` (stereo partly drawn) [Example 36, {(7R)-7-[[-2-methoxy-2-phenylacetyl](methyl)amino]-6,7,8,9-tetrahydropyrido[1,2-a]indol-10-yl}acetic acid], the Ki lay in the range of 10 to 50 nM.

Regarding `CC(C(=O)N(C)[C@@H]1CCc2c(CC(=O)O)c3ccccc3n2C1)c1ccccc1` (stereo partly drawn) [Example 30, ((7R)-7-{methyl [2-phenylpropanoyl]amino}-6,7,8,9-tetrahydropyrido[1,2-a]indol-10-yl)acetic acid], the Ki was at most 5 nM.

As for `CN(C(=O)Cc1ccc(F)cc1Br)[C@@H]1CCc2c(CC(=O)O)c3ccccc3n2C1` [Example 34, {(7R)-7-[[(2-bromo-4-fluorophenyl)acetyl](methyl)amino]-6,7,8,9-tetrahydropyrido[1,2-a]indol-10-yl}acetic acid], the Ki lay in the range of 50 to 100 nM.

In turn, `CN(C(=O)C1(c2ccc(Cl)cc2)CCCC1)[C@@H]1CCc2c(CC(=O)O)c3ccccc3n2C1` [Example 20, {(7R)-7-[{[1-(4-chlorophenyl)cyclopentyl]carbonyl}(methyl)amino]-6,7,8,9-tetrahydropyrido[1,2-a]indol-10-yl}acetic acid] had a Ki of at most 5 nM.

`O=C(O)Cc1c2n(c3ccccc13)C[C@H](N(Cc1ccc(F)cc1)C(=O)Cc1ccc(F)cc1)CC2` [Example 3, ((7R)-7-{(4-fluorobenzyl)[(4-fluorophenyl)acetyl]amino}-6,7,8,9-tetrahydropyrido[1,2-a]indol-10-yl)acetic acid] showed a Ki of at most 5 nM.

Regarding `CN(C(=O)C1(c2ccc(F)cc2)CC1(C)C)[C@@H]1CCc2c(CC(=O)O)c3ccccc3n2C1` (stereo partly drawn) [Example 35, {(7R)-7-[{[1-(4-fluorophenyl)-2,2-dimethylcyclopropyl]carbonyl}(methyl)amino]-6,7,8,9-tetrahydropyrido[1,2-a]indol-10-yl}acetic acid], the Ki is at most 5 nM.

Molecule `CN(C(=O)C(C)(C)Cc1ccccc1)[C@@H]1CCc2c(CC(=O)O)c3ccccc3n2C1` [Example 26, {(7R)-7-[(2,2-dimethyl-3-phenylpropanoyl)(methyl)amino]-6,7,8,9-tetrahydropyrido[1,2-a]indol-10-yl}acetic acid] gave an inhibition constant Ki of 5 to 10 nM.

Broadly, the Ki is the equilibrium dissociation constant of an inhibitor or competing ligand from its target. Higher therefore signals a looser hold on the target.

Source of the values: patent publication US8637671B2, “Indole derivatives as CRTH2 receptor antagonists” (Merck Canada Inc., priority 2008, dated 2014).
